Assay results published in patent US20230355613A1, “METHODS FOR TREATING PANCREATIC DUCTAL ADENOCARCINOMA” (HEALTH RESEARCH, INC., priority 2022, published 2023).

Tests used:
PDAC cells = test: BrdU incorporation assay; type: cell-based; settings: within 8 hours
Protocol: (§1) Finally, we sought to determine how JTE-607-mediated depletion of RD histones led to defects in cell viability. As RD histones are required for cell cycle progression, we assessed the effects of JTE-607 on cell cycle distribution. […] In contrast, JTE-607 arrested Panc1 and MiaPaCa2 PDAC cells in S-phase of the cell cycle within 24 hours (FIGS. 7A and 7B). To corroborate the impact of CPSF3 knockdown on cell cycle, CPSF3 was transiently knocked-down with siRNA in Panc1 and HPNE cells (FIGS. 13D, 7C). CPSF3 knockdown induced cell cycle arrest in Panc1 cells with minimal effect on HPNE cells (FIGS. 7D and 7E). However, unlike CPSF3 inhibition-induced cell cycle arrest at S-phase, CPSF3 knockdown cells arrested at G2. […] To more specifically investigate the timing and extent of S-phase arrest upon JTE-607 treatment, BrdU incorporation was examined in a time-dependent manner (FIG. 7F). […] This is in support of previous reports where histone defects slow the progression of cells during S-phase. Therefore, JTE-607 destabilizes chromatin and attenuates PDAC cell proliferation through S-phase cell cycle arrest.
BrdU incorporation assay. […] Cells were analyzed by flow cytometry immediately and a compensation step was performed. Data were analyzed by FCS Express software (v7.06.0015).

HeLa-TI cells = test: Silenced GFP reporter derepression (chromatin destabilization) by microscopy and flow cytometry; type: cell-based; settings: dose- and time-dependent
Protocol: Therefore, a Micrococcal Nuclease (MNase) assay was performed to assess relative chromatin condensation. In this assay, protein-free DNA is digested by MNase, producing DNA fragmentation patterns that are indicators of whether chromatin is in a condensed or relaxed state. […] To assess chromatin destabilization in a living cell, the HeLa-TI cell line model that has a silenced GFP reporter within a heterochromatic region of the genome was utilized. […] Therefore, GFP expression in HeLa-TI cells was monitored upon JTE-607 treatment by both fluorescence microscopy and flow cytometry.

[1] = system: C-reactive protein, IL-10 and IL-1ra; settings: in humans; cited from earlier work
MiaPaCa2 cells [2] = test: Cell proliferation time course (CellTiter-Glo, days 0, 2, 4, 6); type: cell-based, human; settings: increasing concentrations, days 0-6, dose-dependent
From the text: (§2) PDAC cells are sensitive to chemical inhibition of CPSF3. CPSF3 was recently identified as the target for the small molecule JTE-607. JTE-607 is a prodrug that, when metabolized by the ester hydrolyzing enzyme carboxylesterase 1 (CES1), binds to CPSF3 and inhibits its catalytic activity, impairing the processing of newly synthesized mRNAs. As genetic depletion of CPSF3 attenuated PDAC cell proliferation (FIG. 1), it 2as hypothesized that pharmacologic inhibition of CPSF3 with JTE-607 could represent a novel therapeutic approach in PDAC. The sensitivity of multiple human pancreatic cell lines, both non-transformed and PDAC, to JTE-607 in a 72-hour dose-response cell viability assay was examined. […] To examine if sensitivity to CPSF3 inhibition was associated with proliferation rate, the relationship between cell line doubling time and JTE-607 sensitivity was assessed. […] Next, the effect of JTE-607 on cell proliferation by treating cells with increasing concentrations of JTE-607 and assessing cell viability in a time-dependent fashion (FIGS. 2C-2E) was determined. […] Finally, the effect of JTE-607 on colony formation in PDAC cell lines was tested. […] Therefore, JTE-607 selectively attenuates proliferation of PDAC cells over non-transformed pancreatic cells.
(§3) JTE-607 studies. For dose-response measurements, cells were seeded at a density of 1000 cells per well in a 96-well white plate. The next day, JTE-607 was titrated over a range of concentrations using the Tecan D300e Digital Dispenser and cell viability was measured 72 hours post drug titration using a CellTiter-Glo Luminescent Cell Viability Assay Kit (Promega). For cell proliferation experiments, cells were seeded at a density of 250 cells per well in a 96-well white plate. DMSO control or JTE-607 was dispensed at varying concentrations and proliferation was measured using CellTiter-Glo Assay at days 0, 2, 4 and 6. For clonogenicity experiments, cells were seeded at a concentration of 500 cells per well and treated with different concentrations of JTE-607. […] Colony area was measured using ImageJ software. […]

HPNE cells [3] = test: as above; type: cell-based, human; settings: increasing concentrations, days 0-6
From the text: as §2, §3

Panc1 cells [4] = test: as above; type: cell-based, human; settings: increasing concentrations, days 0-6, dose-dependent
From the text: as §2, §3

C7 CAF = test: 72-hour dose-response cell viability assay (CellTiter-Glo); type: cell-based; settings: Fibroblast, C7 CAF human cancer associated fibroblasts
From the text: as §2
(§4) JTE-607 studies. For dose-response measurements, cells were seeded at a density of 1000 cells per well in a 96-well white plate. The next day, JTE-607 was titrated over a range of concentrations using the Tecan D300e Digital Dispenser and cell viability was measured 72 hours post drug titration using a CellTiter-Glo Luminescent Cell Viability Assay Kit (Promega). For cell proliferation experiments, cells were seeded at a density of 250 cells per well in a 96-well white plate. DMSO control or JTE-607 was dispensed at varying concentrations and proliferation was measured using CellTiter-Glo Assay at days 0, 2, 4 and 6. For clonogenicity experiments, cells were seeded at a concentration of 500 cells per well and treated with different concentrations of JTE-607. Cells were allowed to grow over a period of 11-14 days after which they were fixed in 10% formalin, stained with 0.2% Crystal Violet and images were obtained for analysis. Colony area was measured using ImageJ software. Data were normalized to DMSO control data points.

PancPat CAFs = test: as above; type: cell-based; settings: Fibroblast, PancPat CAFs human cancer associated fibroblasts
From the text: as §2, §4

HPDE cells = test: as above; type: cell-based; settings: Homo sapiens, HPDE non-transformed pancreatic epithelial cells
From the text: as §2, §4

MiaPaCa2 cells [5] = test: Cell cycle analysis (propidium iodide FACS); type: cell-based, human; settings: within 24 hours
Protocol: as §1
(§5) Cell cycle analysis. Cells were trypsinized and resuspended in 1×PBS, then fixed with ice-cold 70% ethanol for 1 hour at −20° C. Cells were then washed with cold 1×PBS and incubated with RNaseA (200 μg/ml) at 37° C. for 1 hour. Propidium iodide (40 μg/ml) was then added, incubated for 1 hour in the dark and analyzed by FACS at 488 nm. Data were analyzed by FCS express software (v7.06.0015).

HPNE cells [6] = test: Cell cycle analysis (propidium iodide FACS); type: cell-based, human
Protocol: as §1, §5

Panc1 cells [7] = test: Cell cycle analysis (propidium iodide FACS); type: cell-based, human; settings: within 24 hours
Protocol: as §1, §5

Compound: CCOC(=O)[C@H](Cc1ccccc1)NC(=O)c1cc(Cl)c(OCCN2CCN(C)CC2)c(Cl)c1O [JTE-607]
- cell cycle arrest phase (BrdU incorporation) (PDAC cells): early to mid S-phase
- GFP expression (HeLa-TI cells): induced GFP expression to levels comparable with CBL0137
- endotoxin-induced production of C-reactive protein, IL-10 and IL-1ra [1]: inhibited
- effect on proliferation (MiaPaCa2 cells [2]): significantly attenuated
- effect on proliferation (HPNE cells [3]): no effect on proliferation
- effect on proliferation (Panc1 cells [4]): significantly attenuated
- IC50 (C7 CAF): 70 µM
- IC50 (PancPat CAFs): 114 µM
- IC50 (HPDE cells): 60.1 µM
- cell cycle arrest phase (MiaPaCa2 cells [5]): S-phase
- cell cycle distribution (HPNE cells [6]): no impact on cell cycle distribution
- cell cycle arrest phase (Panc1 cells [7]): S-phase
